According to ChEMBL document CHEMBL6109109, “Fatty acid binding protein 5 inhibitors as novel anticancer agents against metastatic castration-resistant prostate cancer” (Bioorg Med Chem, 2025):

Columns and labels:
Type in all cases: functional
[1] = test system: PC-3; experiment: Synergistic anticancer activity against human PC-3 cells assessed as cell growth inhibition at 1.25 uM measured after 72 hrs in presence of 1 uM of topotecan by MTT assay relative to control; settings: read-out: GI
[2] = test system: PC-3; experiment: Synergistic anticancer activity against human PC-3 cells assessed as cell growth inhibition at 1.25 uM measured after 72 hrs in presence of 0.0001 uM of topotecan by MTT assay relative to control; settings: read-out: GI
[3] = test system: PC-3; experiment: Synergistic anticancer activity against human PC-3 cells assessed as cell growth inhibition at 0.625 uM measured after 72 hrs in presence of 0.00001 uM of topotecan by MTT assay relative to control; settings: read-out: GI
[4] = test system: PC-3; experiment: Synergistic anticancer activity against human PC-3 cells assessed as cell growth inhibition at 0.625 uM measured after 72 hrs in presence of 1 uM of topotecan by MTT assay relative to control; settings: read-out: GI
[5] = test system: PC-3; experiment: Synergistic anticancer activity against human PC-3 cells assessed as cell growth inhibition at 0.625 uM measured after 72 hrs in presence of 0.001 uM of topotecan by MTT assay relative to control; settings: read-out: GI
[6] = Synergistic anticancer activity against mouse RCaP cells assessed as cell growth inhibition at 0.625 uM measured after 72 hrs in presence of 0.01 uM of topotecan by MTT assay relative to control; settings: read-out: GI
[7] = Synergistic anticancer activity against mouse RCaP cells assessed as cell growth inhibition at 1.25 uM measured after 72 hrs in presence of 0.001 uM of topotecan by MTT assay relative to control; settings: read-out: GI
[8] = test system: PC-3; experiment: Synergistic anticancer activity against human PC-3 cells assessed as cell growth inhibition at 1.25 uM measured after 72 hrs in presence of 0.01 uM of topotecan by MTT assay relative to control; settings: read-out: GI
[9] = test system: PC-3; experiment: Synergistic anticancer activity against human PC-3 cells assessed as cell growth inhibition at 0.625 uM measured after 72 hrs in presence of 10 uM of topotecan by MTT assay relative to control; settings: read-out: GI
[10] = Synergistic anticancer activity against mouse RCaP cells assessed as cell growth inhibition at 1.25 uM measured after 72 hrs in presence of 1 uM of topotecan by MTT assay relative to control; settings: read-out: GI
[11] = test system: PC-3; experiment: Synergistic anticancer activity against human PC-3 cells assessed as cell growth inhibition at […] measured after 72 hrs in presence of 10 uM of topotecan by MTT assay relative to control; settings: dose 2.5 µM, read-out: GI
[12] = Cytotoxicity against mouse RCaP cells assessed as cell growth inhibition at 1.25 uM measured after 72 hrs by MTT assay relative to control; settings: read-out: GI
[13] = test system: PC-3; experiment: Cytotoxicity against human PC-3 cells assessed as cell growth inhibition at […] measured after 72 hrs by MTT assay relative to control; settings: dose 2.5 µM, read-out: GI
[14] = test system: PC-3; experiment: Synergistic anticancer activity against human PC-3 cells assessed as cell growth inhibition at 1.25 uM measured after 72 hrs in presence of 10 uM of topotecan by MTT assay relative to control; settings: read-out: GI
[15] = Cytotoxicity against mouse RCaP cells assessed as cell growth inhibition at 0.625 uM measured after 72 hrs by MTT assay relative to control; settings: read-out: GI
[16] = test system: PC-3; experiment: Cytotoxicity against human PC-3 cells assessed as cell growth inhibition at 0.625 uM measured after 72 hrs by MTT assay relative to control; settings: read-out: GI
[17] = Synergistic anticancer activity against mouse RCaP cells assessed as cell growth inhibition at 0.625 uM measured after 72 hrs in presence of 0.00001 uM of topotecan by MTT assay relative to control; settings: read-out: GI
[18] = Synergistic anticancer activity against mouse RCaP cells assessed as cell growth inhibition at 1.25 uM measured after 72 hrs in presence of 0.01 uM of topotecan by MTT assay relative to control; settings: read-out: GI
[19] = test system: PC-3; experiment: Synergistic anticancer activity against human PC-3 cells assessed as cell growth inhibition at […] measured after 72 hrs in presence of 0.00001 uM of topotecan by MTT assay relative to control; settings: dose 2.5 µM, read-out: GI
[20] = test system: PC-3; experiment: Synergistic anticancer activity against human PC-3 cells assessed as cell growth inhibition at 0.625 uM measured after 72 hrs in presence of 0.1 uM of topotecan by MTT assay relative to control; settings: read-out: GI
[21] = test system: PC-3; experiment: Cytotoxicity against human PC-3 cells assessed as cell growth inhibition at 1.25 uM measured after 72 hrs by MTT assay relative to control; settings: read-out: GI
[22] = Synergistic anticancer activity against mouse RCaP cells assessed as cell growth inhibition at 0.625 uM measured after 72 hrs in presence of 0.001 uM of topotecan by MTT assay relative to control; settings: read-out: GI
[23] = test system: PC-3; experiment: Synergistic anticancer activity against human PC-3 cells assessed as cell growth inhibition at […] measured after 72 hrs in presence of 0.0001 uM of topotecan by MTT assay relative to control; settings: dose 2.5 µM, read-out: GI
[24] = Synergistic anticancer activity against mouse RCaP cells assessed as cell growth inhibition at 0.625 uM measured after 72 hrs in presence of 1 uM of topotecan by MTT assay relative to control; settings: read-out: GI
[25] = Synergistic anticancer activity against mouse RCaP cells assessed as cell growth inhibition at 1.25 uM measured after 72 hrs in presence of 0.00001 uM of topotecan by MTT assay relative to control; settings: read-out: GI
[26] = test system: PC-3; experiment: Synergistic anticancer activity against human PC-3 cells assessed as cell growth inhibition at […] measured after 72 hrs in presence of 1 uM of topotecan by MTT assay relative to control; settings: dose 2.5 µM, read-out: GI
[27] = Synergistic anticancer activity against mouse RCaP cells assessed as cell growth inhibition at 1.25 uM measured after 72 hrs in presence of 0.0001 uM of topotecan by MTT assay relative to control; settings: read-out: GI
[28] = Synergistic anticancer activity against mouse RCaP cells assessed as cell growth inhibition at 0.625 uM measured after 72 hrs in presence of 0.0001 uM of topotecan by MTT assay relative to control; settings: read-out: GI
[29] = Synergistic anticancer activity against mouse RCaP cells assessed as cell growth inhibition at 1.25 uM measured after 72 hrs in presence of 0.1 uM of topotecan by MTT assay relative to control; settings: read-out: GI
[30] = test system: PC-3; experiment: Synergistic anticancer activity against human PC-3 cells assessed as cell growth inhibition at 1.25 uM measured after 72 hrs in presence of 0.1 uM of topotecan by MTT assay relative to control; settings: read-out: GI
[31] = test system: PC-3; experiment: Synergistic anticancer activity against human PC-3 cells assessed as cell growth inhibition at 1.25 uM measured after 72 hrs in presence of 0.00001 uM of topotecan by MTT assay relative to control; settings: read-out: GI
[32] = Synergistic anticancer activity against mouse RCaP cells assessed as cell growth inhibition at 0.625 uM measured after 72 hrs in presence of 10 uM of topotecan by MTT assay relative to control; settings: read-out: GI
[33] = test system: PC-3; experiment: Synergistic anticancer activity against human PC-3 cells assessed as cell growth inhibition at 1.25 uM measured after 72 hrs in presence of 0.001 uM of topotecan by MTT assay relative to control; settings: read-out: GI
[34] = test system: PC-3; experiment: Synergistic anticancer activity against human PC-3 cells assessed as cell growth inhibition at 0.625 uM measured after 72 hrs in presence of 0.01 uM of topotecan by MTT assay relative to control; settings: read-out: GI

COc1ccccc1[C@H]1[C@H](C(=O)O)[C@H](c2ccccc2OC)[C@H]1C(=O)Oc1cc(-c2ccc3c(c2)OCO3)ccc1-c1ccccc1
inhibition of growth at 1.25 µM [1]: 92.3% | inhibition of growth at 1.25 µM [2]: 14.7% | inhibition of growth at 0.625 µM [3]: 1.6% | inhibition of growth at 0.625 µM [4]: 90.2% | inhibition of growth at 0.625 µM [5]: 16.9% | inhibition of growth at 0.625 µM [6]: 10% | inhibition of growth at 1.25 µM [7]: 0.37% | inhibition of growth at 1.25 µM [8]: 55.8% | inhibition of growth at 0.625 µM [9]: 93.2% | inhibition of growth at 1.25 µM [10]: 97.6% | inhibition of growth at […] [11]: 92.9% | inhibition of growth at 1.25 µM [12]: -1.17% | inhibition of growth at […] [13]: 7.37% | inhibition of growth at 1.25 µM [14]: 93.4% | inhibition of growth at 0.625 µM [15]: -2.53% | inhibition of growth at 0.625 µM [16]: -2.63% | inhibition of growth at 0.625 µM [17]: -2.77% | inhibition of growth at 1.25 µM [18]: 8.37% | inhibition of growth at […] [19]: 15.1% | inhibition of growth at 0.625 µM [20]: 69.4% | inhibition of growth at 1.25 µM [21]: -2.3% | inhibition of growth at 0.625 µM [22]: -4.87% | inhibition of growth at […] [23]: 25.3% | inhibition of growth at 0.625 µM [24]: 97.9% | inhibition of growth at 1.25 µM [25]: -1.87% | inhibition of growth at […] [26]: 90.5% | inhibition of growth at 1.25 µM [27]: -1.6% | inhibition of growth at 0.625 µM [28]: -3.7% | inhibition of growth at 1.25 µM [29]: 90% | inhibition of growth at 1.25 µM [30]: 72.5% | inhibition of growth at 1.25 µM [31]: 12.9% | inhibition of growth at 0.625 µM [32]: 99.2% | inhibition of growth at 1.25 µM [33]: 33.1% | inhibition of growth at 0.625 µM [34]: 48%
